The source of these data is patent US8252047B2, “Drug-delivery endovascular stent and method for treating restenosis” (Biosensors International Group, Ltd., priority 2004, dated 2012).

A short description of series [1]: physchem. The text has this: The coating may also include binders or small molecules designed to optimize the tissue solubility of the drug coating, to produce a desired cohesiveness in the drug coating, and a desired drug release rate in the implanted stent.
The test system of series [2] is restenosis in porcine coronary arteries. The series is described as follows: swine restenosis animal model, stent implantation. It is filed as in vivo. The note with it: 28 days after implantation, platinum anchoring layer stent with vs without drug coating. The text has this: Briefly, studies conducted in support of the present invention compared the extent of restenosis at 28 days following stent implantation, in metal stents having an electroplated platinum anchoring layer, with or without a drug coating of Biolimus A-9.

The nature of series [3]: in vitro drug elution in PBS from platinum-coated stent. It counts as physicochemical. As to conditions: 252 μg on platinum-plated anchoring layer stent, by day 34. An excerpt:
FIG. 7 is an elution profile in PBS of the drug Biolimus A-9 from the stent of the invention as measured by the total amount of drug released in μg over cumulative time in hours.
It will be appreciated that the actual rate of drug release in vivo will be much greater, e.g., the bulk of the drug released will be released within the first few days following implantation, due to the greater hydrophobicity of the cell-membrane environment in vivo. However, the in vitro release in a purely aqueous medium provides a useful standard for formulating the drug coating, to achieve an effective drug release rate in vivo and also to achieve, a desired drug-layer cohesiveness.

For series [4] the following is noted: cited from earlier work.

The chromatographic logP is lipophilicity estimated from chromatographic retention. Read a low chromatographic logP as lower lipophilicity.

On to `CCOCCO[C@@H]1CC[C@@H](C[C@@H](C)[C@@H]2CC(=O)[C@H](C)/C=C(\C)[C@@H](O)[C@@H](OC)C(=O)[C@H](C)C[C@H](C)/C=C/C=C/C=C(\C)[C@@H](OC)C[C@@H]3CC[C@@H](C)[C@@](O)(O3)C(=O)C(=O)N3CCCC[C@H]3C(=O)O2)C[C@H]1OC` [Biolimus A-9], for which the “log P (log partition coefficient between octanol and water)” value (“log P” below) in series [1] is given as 7.63. The extent of restenosis entry in series [2] is listed as “significantly reduced the extent of restenosis”. Besides, the “fraction of drug eluted from the stent” value in series [3] was “about one-third”.

Regarding `CO[C@H]1C[C@@H]2CC[C@@H](C)[C@@](O)(O2)C(=O)C(=O)N2CCCC[C@H]2C(=O)O[C@H]([C@H](C)C[C@@H]2CC[C@@H](OCCO)[C@H](OC)C2)CC(=O)[C@H](C)/C=C(\C)[C@@H](O)[C@@H](OC)C(=O)[C@H](C)C[C@H](C)/C=C/C=C/C=C/1C` [everolimus], in series [1], the “log P” value was found to be 6.70.

In series [1], `CC(=O)O[C@H]1C(=O)[C@@]2(C)[C@H]([C@H](OC(=O)c3ccccc3)[C@]3(O)C[C@H](OC(=O)[C@H](O)[C@@H](NC(=O)c4ccccc4)c4ccccc4)C(C)=C1C3(C)C)[C@]1(OC(C)=O)CO[C@@H]1C[C@@H]2O` [paclitaxel] displayed a chromatographic logP of 4.68.

With `CCc1ccc(CCOc2ccc(CC3SC(=O)NC3=O)cc2)nc1` (stereo not drawn) [pioglitazone], the solubility in acetone entry in series [4] (acetone) is on record as “slightly soluble”. Further, the solubility in ethanol result in series [4] (ethanol) is reported as “slightly soluble”. In addition, the solubility in water entry in series [4] (water) is “insoluble”.

As to `CO[C@H]1C[C@@H]2CC[C@@H](C)[C@@](O)(O2)C(=O)C(=O)N2CCCC[C@H]2C(=O)O[C@H]([C@H](C)C[C@@H]2CC[C@@H](O)[C@H](OC)C2)CC(=O)[C@H](C)/C=C(\C)[C@@H](O)[C@@H](OC)C(=O)[C@H](C)C[C@H](C)/C=C/C=C/C=C/1C` [rapamycin], in series [1] (modified HPLC method (Lombardo et al.)), the “log P” value was determined as 6.51.
